Measurements taken from ChEMBL document CHEMBL1212731, “Nonclonal emergence of colistin-resistant Klebsiella pneumoniae isolates from blood samples in South Korea” (2010).
Converted amounts (≈) assume the structure as drawn.

Experiments:
Type in all cases: functional
[1] = system: Klebsiella pneumoniae; test: Antimicrobial activity against colistin-resistant Klebsiella pneumoniae isolated from bacteremia patient by broth microdilution method
[2] = system: Klebsiella pneumoniae; test: Antimicrobial activity against colistin-susceptible Klebsiella pneumoniae isolated from bacteremia patient assessed as percentage of resistant isolates by broth microdilution method
[3] = system: Klebsiella pneumoniae; test: Antimicrobial activity against colistin-resistant Klebsiella pneumoniae isolated from bacteremia patient assessed as percentage of resistant isolates by broth microdilution method
[4] = system: Klebsiella pneumoniae; test: Antimicrobial activity against Klebsiella pneumoniae isolated from bacteremia patient assessed as percentage of resistant isolates by broth microdilution method

Molecule	MIC50 [1] [µg/mL]	MIC90 [1] [µg/mL]	Activity [2] [%]	Activity [3] [%]	Activity [4] [%]
CC1(C)S[C@@H]2[C@H](NC(=O)[C@H](N)c3ccccc3)C(=O)N2[C@H]1C(=O)O [AMPICILLIN]	64 (≈ 183 µM)	> 64	92.2	80	91.4
C[C@H]1[C@H](NC(=O)/C(=N\OC(C)(C)C(=O)O)c2csc(N)n2)C(=O)N1S(=O)(=O)O [AZTREONAM]	≤ 0.06	> 64	17.5	6.7	16.7
CO/N=C(\C(=O)N[C@@H]1C(=O)N2C(C(=O)O)=C(COC(C)=O)CS[C@H]12)c1csc(N)n1 [CEFOTAXIME]	≤ 0.12	128 (≈ 281 µM)	15.1	6.7	14.5
CC(C)(O/N=C(\C(=O)N[C@@H]1C(=O)N2C(C(=O)[O-])=C(C[n+]3ccccc3)CS[C@H]12)c1csc(N)n1)C(=O)O [CEFTAZIDIME]	0.25 (≈ 0.457 µM)	> 64	18.5	6.7	17.7
O=C(O)c1cn(C2CC2)c2cc(N3CCNCC3)c(F)cc2c1=O [CIPROFLOXACIN]	≤ 0.06	64 (≈ 193 µM)	17.5	20	17.7
C[C@@H](O)[C@H]1C(=O)N2C(C(=O)O)=C(SCCNC=N)C[C@H]12 [IMIPENEM ANHYDROUS]	0.25 (≈ 0.835 µM)	1 (≈ 3.34 µM)	0.5		0.5
COLISTIN	1	4		100	6.8
GENTAMICIN	0.5	> 64	17	6.7	16.3
